Test [1] has as its system multiresistant Dd2 strain of Plasmodium falciparum. Description: antiplasmodial action, [8-3H]hypoxanthine incorporation, Dd2 strain. It is filed as cell-based. The settings on record: read-out: in vitro antiplasmodial activity (IC50 value class). The procedure:
For the determination of the antiplasmodial action of the compounds, the multiresistant Dd2 strain of Plasmodium falciparum was used. The incorporation of [8-^3H]hypoxanthine into the parasitic nucleic acids was measured. The plasmodia were incubated at 0.3% parasitaemia and an erythrocyte haematocrit of 2.5% in the presence of different concentrations of the compounds in a final volume of 200-μl. The medium employed was RPMI 1640 which contained 10% of heat-treated human serum and 3 mg/l of gentamycin. in the incubations, the concentrations of the compounds varied from 0.3 to 100 μM. After 48 h, each batch was treated with 50 µl of […] (1 mCi/ml) and incubated for a further 18 h. The cells were filtered off, washed and suspended in 20 μl of scintillation fluid. The radioactive hypoxanthine absorbed by the parasites was then quantified using a scintillation counter.
The results were presented graphically and the IC50 value was determined using a fitting function. The value IC50, the ‘inhibition constant’, indicates the value in μMol/1 at which 50% inhibition occurs.

For test [2], the system named is 3D7 chloroquine sensitive strain of Plasmodium falciparum. Description: antiplasmodial activity against 3D7 strain. It is filed as cell-based. Conditions: read-out: in vitro antiplasmodial activity (IC50 value class). The procedure:
Antiplasmodial activity against the 3D7 chloroquine sensitive strain of Plasmodium falciparumwas determined as described elsewhere (J. Med. Chem. (2001) 44(19), 3187-3194).

A value given as a limit tells only on which side of the number the result lay.

The term IC50 denotes the concentration that gives 50% inhibition.

With `N=C(N)c1cccc(NC(=O)Nc2cccc(S(=O)(=O)c3ccccc3)c2)c1` [Compound 62], the 50% inhibitory concentration (IC50) in test [1] and in test [2] was 1 to 10 µM throughout. In the case of `N=C(N)c1cccc(NC(=O)Nc2ccc3c(c2)S(=O)(=O)C=C3)c1` [Compound 18], the IC50 in test [1] and in test [2] was < 1 µM in each case.

On to `N=C(N)c1cccc(NC(=O)Nc2cc(C(F)(F)F)cc(C(F)(F)F)c2)c1` [Compound 13], for which the IC50 in test [1] and in test [2] was 1 to 10 µM in each case. As to `N=C(N)c1cccc(NC(=O)Nc2cccc(S(N)(=O)=O)c2)c1` [Compound 24], the concentration for half-maximal inhibition (IC50) in test [1] and in test [2] was 10 to 100 µM in each case. `N=C(N)c1ccc(NC(=O)Nc2cc(C(F)(F)F)cc(C(F)(F)F)c2)cc1` [Compound 15]: the half-maximal inhibitory concentration (IC50) in test [1] and in test [2] was 1 to 10 µM each time. As for `N=C(N)c1cccc(NC(=O)Nc2cccc([N+](=O)[O-])c2)c1` [Compound 5], the results for the IC50 in test [1] and in test [2] were 10 to 100 µM and 1 to 10 µM, respectively. As for `N=C(N)c1ccc(NC(=O)Nc2ccc(S(=O)(=O)c3ccccc3)cc2)cc1` [Compound 64], the IC50 in test [1] was < 1 µM; in test [2], 1 to 10 µM. As for `N=C(N)c1cccc(NC(=O)Nc2ccc(S(=O)(=O)NCc3ccc(F)c(F)c3)cc2)c1` [Compound 44], the half-maximal inhibitory concentration (IC50) in test [1] was in the range of 1 to 10 µM. On the same count and under the same terms, then `COC(=O)c1cc(NC(=O)Nc2cccc(C(=N)Nc3cccnc3)c2)cc(C(F)(F)F)c1` [Compound 86], with 1 to 10 µM; and `N=C(N)c1cccc(NC(=O)Nc2ccc(C(F)(F)F)cc2Br)c1` [Compound 11], with 1 to 10 µM. With `N=C(N)c1cccc(NC(=O)Nc2ccc(S(=O)(=O)NCc3ccc(S(N)(=O)=O)cc3)cc2)c1` [Compound 35, 3-{3-[4-(4-sulfamoyl-benzylsulfamoyl)-phenyl]-ureido}-benzamidine], the IC50 in test [1] was < 1 µM. For the compound `N=C(N)c1cccc(NC(=O)Nc2ccc(Br)cc2Br)c1` [Compound 14], the concentration for half-maximal inhibition (IC50) in test [1] lay within 1 to 10 µM. As for `N=C(N)c1cccc(NC(=O)Nc2cccc(C(F)(F)F)c2)c1` [Compound 10], the half-inhibitory concentration (IC50) in test [1] and in test [2] was 1 to 10 µM throughout. For the compound `CC(NS(=O)(=O)c1ccc(NC(=O)Nc2cccc(C(=N)N)c2)cc1)c1ccc(F)cc1` (stereo not shown) [Compound 48], in test [1], the half-maximal inhibitory concentration (IC50) lay within 1 to 10 µM.

On to `N=C(N)c1cccc(NC(=O)Nc2ccc(S(=O)(=O)c3ccccc3)cc2)c1` [Compound 61], for which the IC50 in test [1] and in test [2] was 1 to 10 µM each time. With `N=C(N)c1cccc(NC(=O)Nc2ccc(S(=O)(=O)NCc3ccc(F)cc3)cc2)c1` [Compound 39], the IC50 in test [1] is < 1 µM. Take `N=C(Nc1ccc(-c2ccccc2)cc1)c1cccc(NC(=O)Nc2cccc(C(F)(F)F)c2)c1` [Compound 100]: in test [1], the concentration for half-maximal inhibition (IC50) lay in the range of 1 to 10 µM. For the compound `N=C(N)c1cccc(NC(=O)Nc2ccc(S(=O)(=O)c3ccc(NCCO)cc3)cc2)c1` [Compound 65], the IC50 in test [1] was 1 to 10 µM. Take `N=C(N)c1cccc(NC(=O)Nc2ccc(S(=O)(=O)NCc3ccccc3)cc2)c1` [Compound 33, 3-[3-(4-Benzylsulfamoyl-phenyl)-ureido]-benzamidine]: the IC50 in test [1] is < 1 µM. The same measure, in the same setting: under `COC(=O)c1cc(NC(=O)Nc2cccc(C(=N)N)c2)cc(C(F)(F)F)c1` [Compound 12] stands 1 to 10 µM; under `N=C(N)c1cccc(NC(=O)Nc2ccc(S(=O)(=O)N3CCc4ccccc4C3)cc2)c1` [Compound 20], 1 to 10 µM. The same measure, in the same setting: then `N=C(N)c1cccc(NC(=S)Nc2ccc(S(=O)(=O)NCc3cccc(C(F)(F)F)c3)cc2)c1` [Compound 78], with < 1 µM; and `COC(=O)c1cc(NC(=S)Nc2cccc(C(=N)N)c2)cc(C(F)(F)F)c1` [Compound 79], with < 1 µM.

`N=C(N)c1cccc(NC(=O)Nc2ccc(S(=O)(=O)NCc3ccc(OC(F)(F)F)cc3)cc2)c1` [Compound 34]: the IC50 was < 1 µM in test [1] and 1 to 10 µM in test [2].

As for `N=C(NCCN1CCCC1)c1cccc(NC(=O)Nc2ccc(S(=O)(=O)c3ccc([N+](=O)[O-])cc3)cc2)c1` [Compound 83], the concentration for half-maximal inhibition (IC50) in test [1] was 1 to 10 µM. Regarding `CCCCNS(=O)(=O)c1ccc(NC(=O)Nc2cccc(C(=N)N)c2)cc1` [Compound 21], the IC50 in test [1] lay in the range of 1 to 10 µM. Turning to `N=C(NCC1CCCO1)c1cccc(NC(=O)Nc2ccc(S(=O)(=O)c3ccc([N+](=O)[O-])cc3)cc2)c1` (stereo not shown) [Compound 84], the half-inhibitory concentration (IC50) in test [1] lay in the range of 1 to 10 µM.

With `Cc1ccc(C(=O)Nc2ccc(NC(=O)Nc3cccc(C(=N)N)c3)cc2O)cc1` [Compound 67], the IC50 in test [1] and in test [2] was 1 to 10 µM each time. `N=C(N)c1cccc(NC(=S)Nc2ccc3c(c2)S(=O)(=O)C=C3)c1` [Compound 76]: in test [1], the IC50 is < 1 µM. `N=C(N)c1cccc(NC(=O)Nc2ccc(S(=O)(=O)NCc3ccc([N+](=O)[O-])cc3)cc2)c1` [Compound 59]: the IC50 in test [1] was < 1 µM.

Take `N=C(Nc1cccnc1)c1cccc(NC(=O)Nc2ccc(S(=O)(=O)c3ccc([N+](=O)[O-])cc3)cc2)c1` [Compound 82]: the IC50 in test [1] is < 1 µM. Still for that read-out and setting: under `N=C(N)c1cccc(NC(=O)Nc2ccc(S(=O)(=O)NCc3ccc(F)cc3F)cc2)c1` [Compound 43] stands 1 to 10 µM.
